Reference: paper PMC6753193 (Frontiers in Microbiology, 2019)
Like-named read-outs stand apart in the source and are kept apart here.

Experiments:
[1] = test system: EBOV VP30; assay type: cell-based, Ebola virus
[2] = test system: EBOV; settings: cited from earlier work
[3] = molecular target: WT PP1 (Homo sapiens, UniProt P62136); assay: biochemical; assay type: binding
[4] = molecular target: PP1α (Oryctolagus cuniculus, UniProt P62139); assay type: biochemical
[5] = molecular target: T1, PP1 (Homo sapiens, UniProt P62136); assay type: binding
T1 sequence (P62136 7-300 limits assumed): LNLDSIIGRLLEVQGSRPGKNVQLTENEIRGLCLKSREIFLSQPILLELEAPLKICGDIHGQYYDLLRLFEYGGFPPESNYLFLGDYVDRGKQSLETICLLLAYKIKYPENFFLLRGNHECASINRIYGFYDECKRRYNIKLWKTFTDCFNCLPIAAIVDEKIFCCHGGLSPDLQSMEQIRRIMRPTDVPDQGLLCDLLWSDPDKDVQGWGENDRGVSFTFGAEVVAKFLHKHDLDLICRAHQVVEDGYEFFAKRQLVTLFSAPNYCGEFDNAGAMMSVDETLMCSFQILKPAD

[6] = in vitro; settings: mouse, serum
[7] = test system: EBOV minigenome; assay type: cell-based, Ebola virus
[8] = 1 h, pH 7.4
[9] = molecular target: T1, PP1; assay type: binding; remark: listed apart in the source
[10] = test system: EBOV-eGFP; assay: microbe, parasite or virus in culture; assay type: cell-based, Ebola virus
[11] = molecular target: PP1:cdNIPP1 (Homo sapiens, UniProt P62136); assay: cell-based
PP1:cdNIPP1, sequence (P62136 whole entry, looked up): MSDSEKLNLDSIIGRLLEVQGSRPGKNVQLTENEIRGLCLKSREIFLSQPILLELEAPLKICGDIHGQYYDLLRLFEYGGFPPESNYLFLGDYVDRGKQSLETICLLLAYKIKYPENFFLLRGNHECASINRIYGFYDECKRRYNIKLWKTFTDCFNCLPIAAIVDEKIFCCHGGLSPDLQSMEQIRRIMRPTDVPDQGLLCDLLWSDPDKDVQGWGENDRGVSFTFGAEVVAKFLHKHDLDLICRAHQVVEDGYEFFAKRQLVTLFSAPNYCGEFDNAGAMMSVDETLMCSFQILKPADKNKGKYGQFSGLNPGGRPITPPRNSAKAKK

[12] = 1 h, pH 7.4; remark: listed apart in the source
[13] = molecular target: PP1 MUT:cdNIPP1 (Homo sapiens, UniProt P62136, A299E/G274E/L73Y/Y70W); assay: cell-based
PP1 MUT:cdNIPP1, sequence (P62136 whole entry Y70W/L73Y/G274E/A299E, looked up): as the sequence (P62136 whole entry, looked up) above, with Y70W, L73Y, G274E, A299E counted along it

[14] = in vitro; settings: human
[15] = molecular target: PP1 MUT:cdNIPP1 RATA (Homo sapiens, UniProt P62136, A299E/G274E/L73Y/Y70W); assay: cell-based
PP1 MUT:cdNIPP1 RATA, sequence (P62136 whole entry Y70W/L73Y/G274E/A299E, looked up): as the sequence (P62136 whole entry, looked up) above, with Y70W, L73Y, G274E, A299E counted along it

[16] = test system: Vero-E6 cells
[17] = molecular target: PP1:cdNIPP1 helix MUT (Homo sapiens, UniProt P62136); assay: cell-based
PP1:cdNIPP1 helix MUT, sequence (P62136 whole entry, looked up): as the sequence (P62136 whole entry, looked up) above

[18] = 24 h
[19] = test system: HEK293T cells
[20] = test system: EBOV-eGFP; assay: microbe, parasite or virus in culture; assay type: cell-based, Ebola virus; settings: Zaire ebolavirus, Vero C1008, 48 h, read-out: IC50 EBOV inhibition (virus titer)
[21] = molecular target: PP1:cdNIPP1 RATA (Homo sapiens, UniProt P62136); assay: cell-based
PP1:cdNIPP1 RATA, sequence (P62136 whole entry, looked up): as above

[22] = molecular target: PP1 (Homo sapiens, UniProt P36873); assay type: cell-based
PP1 (Homo sapiens, UniProt P36873), sequence (P36873 whole entry, looked up): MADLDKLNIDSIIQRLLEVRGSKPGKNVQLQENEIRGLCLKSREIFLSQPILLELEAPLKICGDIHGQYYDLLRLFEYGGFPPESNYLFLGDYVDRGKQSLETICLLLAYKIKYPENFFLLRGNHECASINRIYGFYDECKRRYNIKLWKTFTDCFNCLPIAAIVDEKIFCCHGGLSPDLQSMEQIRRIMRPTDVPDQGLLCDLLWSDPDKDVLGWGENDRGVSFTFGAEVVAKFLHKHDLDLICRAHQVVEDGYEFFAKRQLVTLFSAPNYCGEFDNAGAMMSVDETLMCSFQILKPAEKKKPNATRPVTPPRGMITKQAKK

WT PP1, sequence (P62136 7-300 limits assumed): as the sequence (P62136 7-300 limits assumed) above
PP1α, sequence (P62139 whole entry, looked up): as the sequence (P62136 whole entry, looked up) above

Structure (SMILES)	Rmax [3] [RU]	remaining in human liver microsomes [8] [%]	IC50 [11] [µM]	remained intact in mouse liver microsomes [12]	IC50 [13] [µM]	CC50 [14] [µM]	IC50 [15] [µM]	IC50 [17] [µM]	effect on cellular viability [19]	IC50 [20] [µM]	IC50 [21] [µM]	further results
C=C1[C@@H](O)[C@@H]2O[C@]3(CC[C@H](/C=C/[C@@H](C)[C@@H]4CC(C)=C[C@@]5(O[C@H](C[C@@](C)(O)C(=O)O)CC[C@H]5O)O4)O3)CC[C@H]2O[C@@H]1[C@@H](O)C[C@H](C)[C@H]1O[C@@]2(CCCCO2)CC[C@H]1C [okadaic acid]												increase of VP30 phosphopeptides (Thr-119 and Ser-124) vs DMSO control [1]: 3.3 fold
CCNC(=O)NC(=O)C(C)OC(=O)c1c2c(nc3ccccc13)/C(=C\c1cccc([N+](=O)[O-])c1)CCC2 (centres unmarked) [1E7]												EBOV inhibition [2]: inhibited EBOV
CC[C@H](C)[C@H](NC(=O)[C@H](Cc1ccccc1)NC(=O)[C@H](CS)NC(=O)[C@@H](NC(=O)[C@H](CCC(N)=O)NC(=O)[C@H](CS)NC(=O)[C@H](Cc1c[nH]cn1)NC(=O)[C@H](Cc1ccccc1)NC(=O)[C@H](CS)NC(=O)[C@H](CS)NC(=O)[C@H](CCCCN)NC(=O)[C@H](CCCCN)NC(=O)[C@H](CCCNC(=N)N)NC(=O)[C@H](CC(C)C)NC(=O)[C@@H]1CCCN1C(=O)[C@H](CO)NC(=O)[C@H](CO)NC(=O)[C@@H]1CCCN1C(=O)[C@H](Cc1ccccc1)NC(=O)[C@H](CCCCN)NC(=O)[C@H](Cc1ccc(O)cc1)NC(=O)[C@@H]1CCCN1C(=O)[C@H](COP(=O)(O)O)NC(=O)[C@H](CCCNC(=N)N)NC(=O)[C@@H]1CCCN1C(=O)[C@@H](NC(=O)[C@@H](N)Cc1c[nH]cn1)[C@@H](C)CC)C(C)C)C(=O)N[C@H](C(=O)N[C@@H](CCCCN)C(=O)O)[C@@H](C)O [pRb-Tat, reference compound]	212.4											
COc1ccc(C=C2CCc3c2nc2ccccc2c3C(=O)OC(C)C(=O)NC2CC2)cc1OC (centres unmarked) [1E7-07]	9.763	90	3.7	over 90%	4.5	> 300	> 20	4.3	no effect on cellular viability	8.6	> 20	Kd [3]: 0.661 µM; kd [3]: 0.0009566 s⁻¹; kon ([3]; pH 7.4, read-out: ka): 1450 M⁻¹ s⁻¹; effect on PP1 enzymatic activity [4]: no effect; competition with pRb-Tat peptide binding to PP1 [5]: competed dose-dependently; half-life [6]: 6 h; inhibition of EBOV gene expression (Renilla luciferase) [7]: strongly inhibit; protection of peptide 75[…]96 from ELNLLB painting [9]: over 90%; recovered peptide signals compared to the control (protection from ELNLLB painting) [9]: over 70%; EBOV inhibitory activity (comparison among analogs) [10]: best EBOV inhibitory activity; inhibition at 10 µM ([10]; Zaire ebolavirus, Vero C1008, 72 h, read-out: EBOV inhibitory activity): ~70%; remaining in human serum (human, serum, 24 h): no degradation; toxicity (Viral ToxGlo) [16]: no toxicity; remained in mouse serum [18]: 25%; effect on PP1 cellular localization [22]: does not affect
CCNC(=O)NC(=O)C(C)OC(=O)c1c2c(nc3ccccc13)/C(=C\c1ccc(OC)c(OC)c1)CC2 (centres unmarked) [1E7-03]		60	1.5	over 90%	2.7	> 300	> 20	2.4	no effect on cellular viability	7.2	> 20	inhibition of EBOV gene expression (Renilla luciferase) ([7]; 10 μM): strongly inhibit; remaining in human serum (10 μM, 37°C, after 24 h): 78%
